Results on 8 compounds are retold here after PubChem BioAssay (NCI).

Among the test systems are NCI/ADR-RES ovarian; NCI-H460 lung; UACC-62 melanoma; SK-OV-3 ovarian; HS 578T breast; HCT-15 colon; HCC-2998 colon; IGROV1 ovarian; CAKI-1 renal; PC-3 prostate.
What all share (experiment): growth of human tumour cells (NCI), 48 h

Each structure is given as a SMILES string.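 Interpolation was linear, between the two tested concentrations surrounding the appropriate level; five concentrations were tested over 48 hours in 96-well plates. Definition used: TGI = concentration required for complete inhibition of growth.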

`CCOC(=O)C(NS(=O)(=O)c1ccccc1)(C(F)(F)F)P(=O)(OCC(C)C)OCC(C)C` (stereo not given): the TGI in the assay with NCI/ADR-RES ovarian, in the assay on NCI-H460 lung, with UACC-62 melanoma, in the assay with SK-OV-3 ovarian, in the assay on HS 578T breast and in the assay on HCT-15 colon was more than 100 µM in each case. For the same compound, the TGI with HCC-2998 colon, in the assay with IGROV1 ovarian, in the assay on CAKI-1 renal and in the assay with PC-3 prostate was more than 100 µM each time.
With `CCCCCCCCC/C=C1/CC(CO)(COC(=O)C2CCCCC2)OC1=O` (stereo not given), the TGI with NCI/ADR-RES ovarian, with NCI-H460 lung, in the assay with UACC-62 melanoma, in the assay on SK-OV-3 ovarian, in the assay on HS 578T breast and in the assay with HCT-15 colon was more than 100 µM each time. Besides, the TGI in the assay on HCC-2998 colon, with IGROV1 ovarian, in the assay on CAKI-1 renal and in the assay with PC-3 prostate was more than 100 µM throughout.
`Clc1cccc(C=NC23CC4CC(CC(C4)C2)C3)c1Cl`: the TGI in the assay with NCI/ADR-RES ovarian, with NCI-H460 lung, in the assay with UACC-62 melanoma, in the assay with SK-OV-3 ovarian, in the assay on HS 578T breast and in the assay with HCT-15 colon was more than 10 µM in each case. In addition, the TGI with HCC-2998 colon, in the assay with IGROV1 ovarian, in the assay with CAKI-1 renal and in the assay with PC-3 prostate was more than 10 µM each time.
Turning to `Clc1ccc(CCNCCNC2(c3cc4ccccc4s3)CCCCC2)cc1Cl`, the TGI was 3.47 µM in the assay on NCI/ADR-RES ovarian; 3.16 µM with NCI-H460 lung; 3.11 µM in the assay on UACC-62 melanoma; 2.81 µM with SK-OV-3 ovarian; 4.52 µM with HS 578T breast; 3.61 µM with HCT-15 colon. The TGI came to 2.82 µM with HCC-2998 colon, 3.24 µM in the assay on IGROV1 ovarian, 3.42 µM in the assay on CAKI-1 renal and 3.11 µM in the assay with PC-3 prostate.
On to `CCOC(=O)/C(C(N)=O)=C(/O)c1cnccn1`, for which the TGI in the assay with NCI/ADR-RES ovarian, with NCI-H460 lung, in the assay with UACC-62 melanoma, in the assay with SK-OV-3 ovarian, in the assay with HS 578T breast and in the assay with HCT-15 colon was more than 100 µM each time. For the same compound, the TGI in the assay with HCC-2998 colon, in the assay on IGROV1 ovarian, in the assay on CAKI-1 renal and in the assay with PC-3 prostate was more than 100 µM each time.
Regarding `O=C(O)Cn1cnc2c(=O)[nH]c(Nc3ccccc3)nc21`, the TGI in the assay on NCI/ADR-RES ovarian, in the assay with NCI-H460 lung, in the assay with UACC-62 melanoma, in the assay on SK-OV-3 ovarian, in the assay with HS 578T breast and in the assay on HCT-15 colon was more than 100 µM throughout. Moreover, the TGI in the assay with HCC-2998 colon, in the assay on IGROV1 ovarian, with CAKI-1 renal and in the assay with PC-3 prostate was more than 100 µM throughout.
Consider `CC(=O)[C@H]1CC[C@@H]2[C@]1(C)CC=C1[C@]23C=C[C@]2(C[C@@H](O)CC[C@]12C)C(C(=O)O)C3C(=O)O` (stereo not given in full), for which the TGI in the assay with NCI/ADR-RES ovarian, with NCI-H460 lung, in the assay on UACC-62 melanoma, in the assay with SK-OV-3 ovarian, in the assay with HS 578T breast and in the assay on HCT-15 colon was more than 100 µM throughout. Also, the TGI in the assay on HCC-2998 colon, in the assay with IGROV1 ovarian, in the assay with CAKI-1 renal and in the assay on PC-3 prostate was more than 100 µM each time.
`Cc1cc2nc3c(C)c4ccccc4c(C)n3c2cc1C`: the TGI with NCI/ADR-RES ovarian is 8.41 µM; with NCI-H460 lung it was 4.84 µM; in the assay with UACC-62 melanoma it was more than 10 µM; with SK-OV-3 ovarian it was more than 10 µM; with HS 578T breast, more than 10 µM; with HCT-15 colon, 6.14 µM. Further, the TGI with HCC-2998 colon, in the assay with IGROV1 ovarian, with CAKI-1 renal and in the assay with PC-3 prostate was more than 10 µM each time.
